Assay results reported in US20090042946A1, “METHOD AND KIT FOR C[…]” (priority 2003, published 2009).

Tested on: severed left femoral artery
Assay: Severed femoral artery bleeding model in anesthetized mice, topical VRA by cotton-tipped applicator
Type: in vivo
Method: Approximately 4 to 6 week old white mice weighing about 20 grams were anesthetized using 50 microliters of anesthetic (ketamine+xylazine) intraperitoneally. The area near the inguinal region (1.75 cm proximal to the ankle) was shaved and a 0.5 to 1 cm incision was made such that the left femoral artery was severed. The incision was washed with normal saline. Control animals were treated with saline while test animals were treated with a VRA (alvinil) (approx. 500 microliters of a 0.8 mmol solution) administered topically with a cotton-tipped applicator soaked with the VRA solution over the wound. The applicator was then removed after 5 seconds and the wound was evaluated for signs of hemorrhage.
In the control mice, the wound was continuously flushed with saline.
In the treatment group of animals, the wound was treated with arvinil by swab application, then flushed once with saline. […] After 10 minutes, a second incision was made in the femoral artery above the previous cut resulting in severe hemorrhage.

In the case of `CCCCC/C=C\C/C=C\C/C=C\C/C=C\CCCC(=O)NCc1ccc(O)c(OC)c1` [arvinil], the signs of shock (during the course of the experiment after topical treatment of the severed femoral artery) is reported as “No signs of shock”, the “heart perfusion at euthanasia (KCl heart puncture)” value (end of experiment after topical treatment of both cuts) is reported as “fully perfused” and the “bleeding from second incision in femoral artery after application” value (second incision above the previous cut after 10 minutes caused severe hemorrhage, topical application to the second cut) is reported as “cessation of bleeding”. The “bleeding from severed femoral artery after treatment” value (swab application, approx. 500 microliters of 0.8 mmol solution, applicator removed after 5 seconds, observed following one saline flush) was “No bleeding was observed”.
